As usually defined, the IC50 is the concentration that gives 50% inhibition.

The experiment can be described thus: Inhibition of P2Y12 in human platelet rich plasma assessed as reduction in ADP-induced platelet aggregation pre-incubated before ADP addition and measured after 10 mins by Bruker spectrophotometry.
Consider `CCCCCn1nc2cccc([N+](=O)[O-])c2n1`, for which the IC50 is 1020 µM.

As for `CCCCCCCCn1nc2cccc([N+](=O)[O-])c2n1`, the IC50 was 920 µM.

Turning to `CCCCn1nnc2c([N+](=O)[O-])cccc21`, the IC50 was 1050 µM.

Regarding `CCCCCCCCn1nnc2c([N+](=O)[O-])cccc21`, the IC50 stood at 940 µM.

For `O=[N+]([O-])c1cccc2nn(Cc3ccccc3)nc12`, the IC50 worked out at 820 µM.

For the compound `CCCCCCCn1nnc2c([N+](=O)[O-])cccc21`, the IC50 was found to be 950 µM.

Turning to `CCCCCCCn1nc2cccc([N+](=O)[O-])c2n1`, the IC50 turned out to be 930 µM.

Take `Cn1nnc2c([N+](=O)[O-])cccc21`: the IC50 was determined as 1840 µM.

In the case of `CCCn1nc2cccc([N+](=O)[O-])c2n1`, the IC50 worked out at 1320 µM.

Regarding `O=C(c1ccccc1)n1nnc2c([N+](=O)[O-])cccc21`, the IC50 came to 650 µM.

For the compound `CCn1nnc2c([N+](=O)[O-])cccc21`, the IC50 was found to be 1500 µM.

With `O=[N+]([O-])c1cccc2nn(CCCCl)nc12`, the half-inhibitory concentration (IC50) worked out at 1260 µM.

Consider `Cn1nnc2cccc([N+](=O)[O-])c21`, for which the IC50 amounted to 1800 µM.

As for `CCCCn1nc2cccc([N+](=O)[O-])c2n1`, the IC50 was determined as 1070 µM.

As to `CCCSc1nc(N[C@@H]2C[C@H]2c2ccc(F)c(F)c2)c2nnn([C@@H]3C[C@H](OCCO)[C@@H](O)[C@H]3O)c2n1` [AR-C126532XX], the IC50 stood at 0.32 µM.

On to `O=[N+]([O-])c1cccc2c1nnn2CCCCl`, for which the IC50 amounted to 910 µM.

For the compound `Cn1nc2cccc([N+](=O)[O-])c2n1`, the IC50 came to 1960 µM.

Turning to `CCCCCCn1nnc2c([N+](=O)[O-])cccc21`, the IC50 came out at 1040 µM.

Regarding `Cc1ccc(S(=O)(=O)n2nnc3c([N+](=O)[O-])cccc32)cc1`, the IC50 came to 860 µM.

On to `CCCn1nnc2c([N+](=O)[O-])cccc21`, for which the IC50 was 1300 µM.

For `CCn1nc2cccc([N+](=O)[O-])c2n1`, the IC50 turned out to be 1620 µM.

In the case of `CCCCCCn1nc2cccc([N+](=O)[O-])c2n1`, the IC50 is 940 µM.

Consider `O=[N+]([O-])c1cccc2c1nnn2Cc1ccccc1`, for which the IC50 amounted to 810 µM.

For the compound `c1ccc2[nH]nnc2c1` [CHEBI:75331], the IC50 turned out to be 7430 µM.

In the case of `CCCCCn1nnc2c([N+](=O)[O-])cccc21`, the IC50 worked out at 1070 µM.
